Source: the supplement of paper PMC10307832

Columns and labels:
Assay in all cases: relative viability (nuclei count vs DMSO), 5 days (fraction); higher = more cells survive
QS11 + Linsitinib = compound: C1CC2=C(C1)C=C(C=C2)OC3=NC(=C4C(=N3)N(C=N4)CC5=CC=C(C=C5)C6=CC=CC=C6)N[C@@H](CC7=CC=CC=C7)CO [QS11] + C[C@]1(O)C[C@@H](c2nc(-c3ccc4ccc(-c5ccccc5)nc4c3)c3c(N)nccn32)C1 [Linsitinib] (partner 1 µM)
Procedure, shortened: (§1)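 Lung cancer cell lines were seeded in 1536-well plates and dosed by pin tool the next day, with either a single drug or a fixed anchor-drug dose combined with five library-drug doses (not always all listed) spaced in √10 steps. Five days later, one step fixed the cells and stained their nuclei (final 0.05% Triton X-100, 1% formaldehyde, 1 ug/ml Hoechst), and nuclei were counted on 4× images. Relative viability is the nuclei count in treated wells divided by the count in vehicle wells, and each value is the median of duplicate plates.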

AZ628 + Foretinib = compound: CC1=C(C=C(C=C1)NC(=O)C2=CC(=CC=C2)C(C)(C)C#N)NC3=CC4=C(C=C3)N=CN(C4=O)C [AZ628] + COc1cc2c(Oc3ccc(NC(=O)C4(C(=O)Nc5ccc(F)cc5)CC4)cc3F)ccnc2cc1OCCCN1CCOCC1 [Foretinib] (partner 0.25 µM)
Procedure, shortened: as §1

AZ628 + Decitabine = compound: CC1=C(C=C(C=C1)NC(=O)C2=CC(=CC=C2)C(C)(C)C#N)NC3=CC4=C(C=C3)N=CN(C4=O)C [AZ628] + Nc1ncn([C@H]2C[C@H](O)[C@@H](CO)O2)c(=O)n1 [Decitabine] (partner 2 µM)
Procedure, shortened: as §1

Darinaparsin + Alpelisib = compound: C[As](C)SC[C@H](NC(=O)CC[C@H](N)C(=O)O)C(=O)NCC(=O)O [Darinaparsin] + Cc1nc(NC(=O)N2CCC[C@H]2C(N)=O)sc1-c1ccnc(C(C)(C)C(F)(F)F)c1 [Alpelisib] (partner 2 µM)
Procedure, shortened: as §1

Row | Cell Line | relative viability (QS11 + Linsitinib; first compound 0.08 µM) | relative viability (QS11 + Linsitinib; first compound 0.253 µM) | relative viability (QS11 + Linsitinib; first compound 0.8 µM) | relative viability (QS11 + Linsitinib; first compound 2.53 µM) | relative viability (QS11 + Linsitinib; first compound 8 µM) | relative viability (AZ628 + Foretinib; first compound 0.08 µM) | relative viability (AZ628 + Foretinib; first compound 0.253 µM) | relative viability (AZ628 + Foretinib; first compound 0.8 µM) | relative viability (AZ628 + Foretinib; first compound 2.53 µM) | relative viability (AZ628 + Foretinib; first compound 8 µM) | relative viability (AZ628 + Decitabine; first compound 0.08 µM) | relative viability (AZ628 + Decitabine; first compound 0.253 µM) | relative viability (AZ628 + Decitabine; first compound 0.8 µM) | relative viability (AZ628 + Decitabine; first compound 2.53 µM) | relative viability (AZ628 + Decitabine; first compound 8 µM) | relative viability (Darinaparsin + Alpelisib; first compound 0.08 µM) | relative viability (Darinaparsin + Alpelisib; first compound 0.8 µM) | relative viability (Darinaparsin + Alpelisib; first compound 2.53 µM) | relative viability (Darinaparsin + Alpelisib; first compound 8 µM)
1 | NCI-H1651 | 1.12 | 0.987 | 0.813 | 0.939 | 0.581 | 0.887 | 0.867 | 0.885 | 0.774 | 0.856 | 0.67 | 0.571 | 0.653 | 0.683 | 0.593 | 1.11 | 0.994 | 0.931 | 1.27
2 | LK-2 | 0.341 | 0.619 | 0.668 | 0.31 | 0.81 | 1.42 | 0.985 | 1.09 | 1.28 | 0.587 | 0.308 | 0.271 | 0.326 | 0.338 | 0.184 | 1.37 |  | 1.31 | 1.42
3 | NCI-H2023 | 0.729 | 0.545 | 0.57 | 0.713 | 0.803 | 0.886 | 0.824 | 0.826 | 0.724 | 0.607 | 0.292 | 0.229 | 0.24 | 0.228 | 0.252 | 0.658 | 0.601 | 0.536 | 0.603
4 | COR-L23 | 0.938 | 1.01 | 0.767 | 0.784 | 0.625 | 1.02 | 1 | 0.949 | 1.08 | 0.625 | 0.471 | 0.43 | 0.349 | 0.453 | 0.27 | 1.02 | 0.707 | 0.585 | 0.893
5 | NCI-H1734 | 0.897 | 0.988 | 0.851 | 0.825 | 0.848 | 0.667 | 0.759 | 0.686 | 0.753 | 0.416 | 0.515 | 0.549 | 0.5 | 0.457 | 0.344 | 0.829 | 0.67 | 0.669 | 0.766
6 | NCI-H23 | 0.624 | 0.528 | 0.561 | 0.477 | 0.404 | 0.989 | 0.967 | 0.768 | 0.773 | 0.588 | 0.298 | 0.315 | 0.232 | 0.291 | 0.269 | 0.926 | 0.582 | 0.711 | 0.681
7 | NCI-H647 | 1.12 | 1.21 | 1.17 | 1.21 | 1.23 | 1.02 | 1.28 | 1.36 | 1.29 | 1.05 | 0.383 | 0.452 | 0.329 | 0.383 | 0.332 | 1.57 | 1.16 | 0.827 | 1.31
8 | NCI-H1915 | 1.05 | 1.14 |  | 1.16 | 1.03 | 1.23 | 1.1 | 0.987 | 0.89 | 0.59 | 0.271 | 0.259 | 0.267 | 0.254 | 0.169 | 1.12 | 1.06 | 1.03 | 1.11
9 | 201T | 1.01 | 1.01 | 0.847 | 1.01 | 0.888 | 1.29 | 1.01 | 1.18 | 1.16 | 1.31 | 0.869 | 0.859 | 0.874 | 0.911 | 0.858 | 1.12 | 1.03 | 0.997 | 0.82
10 | NCI-H3122 | 1 | 1.17 | 0.919 | 1.17 | 0.842 | 0.787 | 0.625 | 0.499 | 0.613 | 0.233 | 0.307 | 0.21 | 0.221 | 0.239 | 0.161 | 0.9 | 0.796 | 0.735 | 1.01
11 | HCC-78 | 0.517 | 0.528 | 0.463 | 0.579 | 0.514 | 0.732 | 0.748 | 0.715 | 0.621 | 0.67 | 0.734 | 0.629 | 0.771 | 0.787 | 0.848 | 0.363 | 0.301 | 0.358 | 0.259
12 | HARA | 0.965 | 1.02 |  | 0.912 | 1.19 | 0.713 | 0.898 | 0.792 | 0.795 | 0.392 | 0.414 | 0.441 | 0.461 | 0.448 | 0.289 | 0.868 | 0.682 | 0.756 | 1.19
13 | NCI-H2347 | 1.04 | 0.955 | 0.777 | 0.712 | 1.11 | 0.697 | 0.81 | 0.704 | 0.976 | 0.407 | 0.522 | 0.605 | 0.582 | 0.613 | 0.36 | 1.21 | 1.09 | 1.04 | 1.09
14 | NCI-H1437 | 1.12 | 1.26 | 0.698 | 0.771 | 0.86 | 1.26 | 1.13 | 1.25 | 1.28 | 1.23 | 0.606 | 0.548 | 0.531 | 0.613 | 0.659 | 1.17 | 0.942 | 0.92 | 1.16
15 | LXF-289 | 0.977 | 1.01 | 0.681 | 0.896 | 0.72 | 1 | 0.942 | 0.879 | 0.961 | 0.641 | 0.403 | 0.378 | 0.394 | 0.371 | 0.372 | 1.11 | 1.06 | 0.851 | 1.16
16 | LU99A | 0.529 | 0.561 | 0.555 | 0.465 | 0.38 | 0.862 | 0.767 | 0.833 | 0.861 | 0.431 | 0.825 | 0.669 | 0.806 | 0.447 | 0.386 | 0.592 | 0.52 | 0.457 | 0.606
17 | A549 | 0.506 | 0.558 | 0.507 | 0.475 | 0.885 | 0.931 | 0.824 | 0.816 | 0.956 | 0.34 | 0.262 | 0.24 | 0.268 | 0.287 | 0.206 | 0.973 | 0.812 | 0.746 | 1.08
